Source: US20020090373A1, “ADAMTS polypeptides, nucleic acids encoding them, and uses thereof” (priority 2000, published 2002)

T1: Recombinant human ADAMTS-SI (Homo sapiens, UniProt Q9P2N4)
T1 construct: made in house
T1 sequence (Q9P2N4 288-1629 isoform Q9P2N4-1 limits assumed): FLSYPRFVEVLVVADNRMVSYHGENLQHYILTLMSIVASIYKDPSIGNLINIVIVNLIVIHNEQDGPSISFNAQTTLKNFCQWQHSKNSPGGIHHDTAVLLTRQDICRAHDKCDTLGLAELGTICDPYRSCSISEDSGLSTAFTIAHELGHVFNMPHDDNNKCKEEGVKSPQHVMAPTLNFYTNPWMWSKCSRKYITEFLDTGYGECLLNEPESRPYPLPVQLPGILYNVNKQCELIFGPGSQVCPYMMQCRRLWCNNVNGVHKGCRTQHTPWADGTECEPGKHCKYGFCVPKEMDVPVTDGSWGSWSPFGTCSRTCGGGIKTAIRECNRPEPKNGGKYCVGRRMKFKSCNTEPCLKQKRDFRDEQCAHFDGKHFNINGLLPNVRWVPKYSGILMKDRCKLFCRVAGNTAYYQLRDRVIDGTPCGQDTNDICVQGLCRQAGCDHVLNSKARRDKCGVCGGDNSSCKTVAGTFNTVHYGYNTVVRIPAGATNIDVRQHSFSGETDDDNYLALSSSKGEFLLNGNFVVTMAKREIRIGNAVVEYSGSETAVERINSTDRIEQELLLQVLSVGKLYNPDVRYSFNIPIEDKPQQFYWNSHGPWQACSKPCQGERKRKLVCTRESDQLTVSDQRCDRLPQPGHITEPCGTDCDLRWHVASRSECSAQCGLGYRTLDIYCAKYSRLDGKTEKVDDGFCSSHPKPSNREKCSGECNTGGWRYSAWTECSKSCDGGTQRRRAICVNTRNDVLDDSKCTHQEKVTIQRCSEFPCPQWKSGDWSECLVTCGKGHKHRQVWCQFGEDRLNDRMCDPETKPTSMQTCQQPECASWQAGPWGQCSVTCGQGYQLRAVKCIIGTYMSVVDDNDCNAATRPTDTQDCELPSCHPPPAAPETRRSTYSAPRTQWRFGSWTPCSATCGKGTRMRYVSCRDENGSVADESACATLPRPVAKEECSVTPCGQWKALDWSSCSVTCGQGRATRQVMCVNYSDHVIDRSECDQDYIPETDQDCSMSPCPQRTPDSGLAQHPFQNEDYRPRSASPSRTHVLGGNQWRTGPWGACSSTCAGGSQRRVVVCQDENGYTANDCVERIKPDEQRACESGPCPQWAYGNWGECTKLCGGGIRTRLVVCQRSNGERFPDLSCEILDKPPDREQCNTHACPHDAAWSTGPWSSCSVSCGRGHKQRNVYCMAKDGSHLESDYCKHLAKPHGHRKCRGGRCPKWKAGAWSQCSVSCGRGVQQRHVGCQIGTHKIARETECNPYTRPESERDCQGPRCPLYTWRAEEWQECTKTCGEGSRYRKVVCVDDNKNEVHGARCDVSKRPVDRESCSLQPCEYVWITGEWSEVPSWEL

T2: recombinant human ADAMTS-4 (Homo sapiens, UniProt O75173)
T2 sequence (O75173 213-837): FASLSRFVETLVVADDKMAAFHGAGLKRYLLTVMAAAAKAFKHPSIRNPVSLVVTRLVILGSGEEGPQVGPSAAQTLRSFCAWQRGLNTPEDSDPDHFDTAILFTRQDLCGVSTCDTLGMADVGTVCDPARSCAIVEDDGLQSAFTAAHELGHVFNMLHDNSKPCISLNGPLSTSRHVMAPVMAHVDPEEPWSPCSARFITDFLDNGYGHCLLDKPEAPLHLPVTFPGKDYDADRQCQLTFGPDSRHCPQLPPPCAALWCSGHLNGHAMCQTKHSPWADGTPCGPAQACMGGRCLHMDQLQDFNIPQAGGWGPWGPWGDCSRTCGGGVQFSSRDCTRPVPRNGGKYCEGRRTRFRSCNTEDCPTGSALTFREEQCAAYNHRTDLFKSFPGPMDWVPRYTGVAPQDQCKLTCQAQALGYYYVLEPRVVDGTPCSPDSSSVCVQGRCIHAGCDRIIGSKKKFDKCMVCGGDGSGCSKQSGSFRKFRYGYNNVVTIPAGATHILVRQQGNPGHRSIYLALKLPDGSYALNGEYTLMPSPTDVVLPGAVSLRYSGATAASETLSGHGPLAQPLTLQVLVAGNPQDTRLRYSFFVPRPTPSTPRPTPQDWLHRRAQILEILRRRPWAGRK


Tests used:
[1] = test system: aggrecan degradation induced by intraarticular injection of IL-1; settings: hamsters, intraarticular injection of IL-1, 30 mg/kg p.o.; cited from earlier work
[2] = biological target: T1, Recombinant human ADAMTS-SI; assay: Western blot (anti-NITEGE neoepitope) of aggrecanase substrate cleavage by ADAMTS-SI ± compound I; assay type: biochemical; settings: 1 μM compound I, 1 μM substrate, 18 hours at 37° C., FIG. 8
Description: (§1) Recombinant human ADAMTS-SI (20 μl) and recombinant human ADAMTS-4 (MD Tortorella, Science, 284:1664) (20 μl) were incubated with 1 μM of aggrecanase substrate (aggrecan protein containing the interglobular domain (IGD)). The substrate is cleaved at the relevant aggrecanase site by aggrecanases such as ADAMTS-4. […] The aggrecanase substrate has been used to assess the activity of various aggrecanases, such as ADAMTS-4, and their inhibitors, such as compound I, shown below, and described in EP 1081137, published Mar. 7, 2001: [drawing 1]
(§2) Incubations were carried out in 20 μl TSC buffer (50 mM Tris, pH 7.5 100 mM NaCl, 10 mM CaCl2) with protease inhibitor cocktail (“Complete”, EDTA free from Roche: catalog number 1873580)±1 μM compound I, for 18 hours at 37° C. The reactions were stopped by the addition of EDTA to 10 mM final concentration. The reaction mixtures were prepared for SDS-PAGE by the addition of 40 μl 2× sample buffer (Novex) containing 0.5 M DTT and then separated on 4-20% Tris glycine gels (Novex). […]
(§3) Treatment of the aggrecan protein with aggrecanases results in the formation of a characteristic cleavage site in the IGD. […] The crude rabbit antiserum was affinity purified against the corresponding neoepitope sequence and absorbed against a read-through peptide to ensure specificity for the neoepitope sequence. […]

[3] = biological target: aggrecanase activity secreted by human osteoarthritic cartilage; settings: cited from earlier work
[4] = test system: IL-1 induced aggrecan degradation in human osteoarthritic cartilage explants; settings: cited from earlier work
[5] = biological target: T2, recombinant human ADAMTS-4; assay: Western blot (anti-NITEGE neoepitope) of aggrecanase substrate cleavage by ADAMTS-4 ± compound I; assay type: biochemical; settings: 1 μM compound I, 1 μM substrate, 18 hours at 37° C., FIG. 8
Description: as §1, §2, §3

[6] = biological target: aggrecanase substrate (aggrecan protein containing the interglobular domain (IGD)), uncleaved
[7] = test system: aggrecanase substrate (aggrecan protein containing the interglobular domain (IGD)); assay: Cleavage of aggrecanase substrate by recombinant enzymes (anti-NITEGE Western blot); assay type: biochemical; settings: 20 μl enzyme, 1 μM substrate, 18 hours at 37° C., FIG. 8
Description: as §1, §2, §3

Molecule | inhibition of aggrecan degradation [1] | inhibition of ADAMTS-SI aggrecanase activity (cleavage of aggrecanase substrate) [2] | IC50 [3] | IC50 [4] | inhibition of ADAMTS-4 aggrecanase activity (cleavage of aggrecanase substrate) [5] | cleavage of the aggrecanase substrate at the aggrecanase site (Western blot with anti-NITEGE neoepitope antibody) [6] | cleavage of aggrecanase substrate at aggrecanase site (NITEGE neoepitope) [7]
C[C@@]1(O)CCCN(S(=O)(=O)c2ccc(OCc3ccc(F)cc3Cl)cc2)[C@H]1C(=O)NO [compound I] | 93 % inhibition | blocked | 4.1 nM | 8 nM | blocked | – | –
Recombinant human ADAMTS-SI (protein) FLSYPRFVEVLVVADNRMVSYHGENLQHYILTLMSIVASIYKDPSIGNLINIVIVNLIVIHNEQDGPSISFNAQTTLKNFCQWQHSKNSPGGIHHDTAVLLTRQDICRAHDKCDTLGLAELGTICDPYRSCSISEDSGLSTAFTIAHELGHVFNMPHDDNNKCKEEGVKSPQHVMAPTLNFYTNPWMWSKCSRKYITEFLDTGYGECLLNEPESRPYPLPVQLPGILYNVNKQCELIFGPGSQVCPYMMQCRRLWCNNVNGVHKGCRTQHTPWADGTECEPGKHCKYGFCVPKEMDVPVTDGSWGSWSPFGTCSRTCGGGIKTAIRECNRPEPKNGGKYCVGRRMKFKSCNTEPCLKQKRDFRDEQCAHFDGKHFNINGLLPNVRWVPKYSGILMKDRCKLFCRVAGNTAYYQLRDRVIDGTPCGQDTNDICVQGLCRQAGCDHVLNSKARRDKCGVCGGDNSSCKTVAGTFNTVHYGYNTVVRIPAGATNIDVRQHSFSGETDDDNYLALSSSKGEFLLNGNFVVTMAKREIRIGNAVVEYSGSETAVERINSTDRIEQELLLQVLSVGKLYNPDVRYSFNIPIEDKPQQFYWNSHGPWQACSKPCQGERKRKLVCTRESDQLTVSDQRCDRLPQPGHITEPCGTDCDLRWHVASRSECSAQCGLGYRTLDIYCAKYSRLDGKTEKVDDGFCSSHPKPSNREKCSGECNTGGWRYSAWTECSKSCDGGTQRRRAICVNTRNDVLDDSKCTHQEKVTIQRCSEFPCPQWKSGDWSECLVTCGKGHKHRQVWCQFGEDRLNDRMCDPETKPTSMQTCQQPECASWQAGPWGQCSVTCGQGYQLRAVKCIIGTYMSVVDDNDCNAATRPTDTQDCELPSCHPPPAAPETRRSTYSAPRTQWRFGSWTPCSATCGKGTRMRYVSCRDENGSVADESACATLPRPVAKEECSVTPCGQWKALDWSSCSVTCGQGRATRQVMCVNYSDHVIDRSECDQDYIPETDQDCSMSPCPQRTPDSGLAQHPFQNEDYRPRSASPSRTHVLGGNQWRTGPWGACSSTCAGGSQRRVVVCQDENGYTANDCVERIKPDEQRACESGPCPQWAYGNWGECTKLCGGGIRTRLVVCQRSNGERFPDLSCEILDKPPDREQCNTHACPHDAAWSTGPWSSCSVSCGRGHKQRNVYCMAKDGSHLESDYCKHLAKPHGHRKCRGGRCPKWKAGAWSQCSVSCGRGVQQRHVGCQIGTHKIARETECNPYTRPESERDCQGPRCPLYTWRAEEWQECTKTCGEGSRYRKVVCVDDNKNEVHGARCDVSKRPVDRESCSLQPCEYVWITGEWSEVPSWEL | – | – | – | – | – | treatment of the substrate with both ADAMTS-4 and ADAMTS-SI resulted in cleavage at the previously characterized aggrecanase cleavage site | –
recombinant human ADAMTS-4 (protein) FASLSRFVETLVVADDKMAAFHGAGLKRYLLTVMAAAAKAFKHPSIRNPVSLVVTRLVILGSGEEGPQVGPSAAQTLRSFCAWQRGLNTPEDSDPDHFDTAILFTRQDLCGVSTCDTLGMADVGTVCDPARSCAIVEDDGLQSAFTAAHELGHVFNMLHDNSKPCISLNGPLSTSRHVMAPVMAHVDPEEPWSPCSARFITDFLDNGYGHCLLDKPEAPLHLPVTFPGKDYDADRQCQLTFGPDSRHCPQLPPPCAALWCSGHLNGHAMCQTKHSPWADGTPCGPAQACMGGRCLHMDQLQDFNIPQAGGWGPWGPWGDCSRTCGGGVQFSSRDCTRPVPRNGGKYCEGRRTRFRSCNTEDCPTGSALTFREEQCAAYNHRTDLFKSFPGPMDWVPRYTGVAPQDQCKLTCQAQALGYYYVLEPRVVDGTPCSPDSSSVCVQGRCIHAGCDRIIGSKKKFDKCMVCGGDGSGCSKQSGSFRKFRYGYNNVVTIPAGATHILVRQQGNPGHRSIYLALKLPDGSYALNGEYTLMPSPTDVVLPGAVSLRYSGATAASETLSGHGPLAQPLTLQVLVAGNPQDTRLRYSFFVPRPTPSTPRPTPQDWLHRRAQILEILRRRPWAGRK | – | – | – | – | – | treatment of the substrate with both ADAMTS-4 and ADAMTS-SI resulted in cleavage at the previously characterized aggrecanase cleavage site | resulted in cleavage at the previously characterized aggrecanase cleavage site
